Legend:
tubulin = target: T1, tubulin (Sus scrofa, UniProt P02550+P02554); assay: Evaluation of the inhibition of tubulin polymerization (turbidimetry); type: biochemical, pig; conditions: tubulin 10 μm (1 mg/ml), 37° C., turbidity at 350 nm; concentration that inhibits the rate of polymerization by 50%; read-out: Inhibition of tubulin polymerization IC 50 (μm)
T1 construct: Tubulin is purified from pig brain according to published methods; from tissue; host or cells: pig brain
Method: Tubulin is purified from pig brain according to published methods (Shelanski et al., 1973, Proc. Natl. Acad. Sci. USA, 70, 765-768. Weingarten et al., 1975, Proc. Natl. Acad. Sci. USA, 72, 1858-1862). Briefly, the brains are ground and centrifuged in an extraction buffer. The tubulin contained in the supernatant of the extract undergoes two successive cycles of polymerization at 37° C. and depolymerization at 4° C., before being separated from the MAPs (Microtubule Associated Proteins) by chromatography on a phosphocellulose P11 column (Whatman). The tubulin thus isolated is more than 95% pure. It is stored in a buffer known as RB/2 30% glycerol, the composition of which is 50 mM MES-NaOH [2-(N-morpholino)ethanesulfonic acid], pH 6.8; 0.25 mM MgCl2; 0.5 mM EGTA; 30% glycerol (v/v), 0.2 mM GTP (guanosine-5′-triphosphate).
The polymerization of tubulin to microtubules is monitored by turbidimetry as follows: the tubulin is adjusted to a concentration of 10 μm (1 mg/ml) in RB/2 30% glycerol buffer to which 1 mM GTP and 6 mM MgCl2 are added. The polymerization is triggered by an increase in temperature from 6° C. to 37° C. in a cuvette with an optical path length of 1 cm, placed in a UVIKON 931 spectrophotometer (Kontron) equipped with a thermostatically maintained cuvette holder. The increase in the turbidity of the solution is monitored at 350 nm.
The products are dissolved at 10 mM in DMSO and added at variable concentrations (0.5 to 10 μm) to the tubulin solution before polymerization. The IC50 value is defined as the concentration of product that inhibits the rate of polymerization by 50%.

HCT116 cells = assay: Inhibition of proliferation of the human colon tumor line HCT116 ([14C]-thymidine incorporation); type: cell-based; conditions: Homo sapiens, HCT-116, 48 h, 48 hours at 37° C., read-out: Inhibition of HCT116 proliferation IC 50 (μm)
Method: The proliferation of HCT116 cells is evaluated by measuring the incorporation of [^14C]-thymidine in the following manner. The HCT 116 cells (obtained from the ATCC) are cultured in a DMEM medium (Gibco) containing 10% fetal calf serum and antibiotics (1% penicillin, 1% streptomycin). To perform the proliferation test, the cells are inoculated in cytostar 96-well microplates (Amersham), at a rate of 5000 cells per well. [^14C]-thymidine (0.1 μCi/well) and the products to be evaluated are then added. Variable concentrations of products up to 10 μm are used; the DMSO (solvent used to dissolve the products) should not exceed 0.5% in the medium. 48 hours after incubation at 37° C., the radioactivity incorporated into the cells is measured by counting the plate in a TRI-LUX counter (Wallac). The IC50 is defined as the concentration of product that reduces the radioactivity by 50% compared with an untreated control. A product whose IC50 is less than 3 μm is considered cytotoxic.

T1 sequence (P02550 whole entry): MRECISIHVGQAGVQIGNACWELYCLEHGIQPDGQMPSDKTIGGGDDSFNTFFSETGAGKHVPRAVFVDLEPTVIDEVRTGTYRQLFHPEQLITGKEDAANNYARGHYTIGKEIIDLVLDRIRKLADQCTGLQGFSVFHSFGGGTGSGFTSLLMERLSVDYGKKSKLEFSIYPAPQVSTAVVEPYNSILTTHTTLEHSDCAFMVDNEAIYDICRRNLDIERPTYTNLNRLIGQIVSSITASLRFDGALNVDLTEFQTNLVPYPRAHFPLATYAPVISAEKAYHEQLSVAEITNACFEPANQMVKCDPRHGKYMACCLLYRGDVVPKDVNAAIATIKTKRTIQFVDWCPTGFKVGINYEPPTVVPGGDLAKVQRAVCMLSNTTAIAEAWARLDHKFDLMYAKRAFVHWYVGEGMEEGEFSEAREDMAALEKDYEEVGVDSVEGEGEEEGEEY
T1 sequence (P02554 whole entry): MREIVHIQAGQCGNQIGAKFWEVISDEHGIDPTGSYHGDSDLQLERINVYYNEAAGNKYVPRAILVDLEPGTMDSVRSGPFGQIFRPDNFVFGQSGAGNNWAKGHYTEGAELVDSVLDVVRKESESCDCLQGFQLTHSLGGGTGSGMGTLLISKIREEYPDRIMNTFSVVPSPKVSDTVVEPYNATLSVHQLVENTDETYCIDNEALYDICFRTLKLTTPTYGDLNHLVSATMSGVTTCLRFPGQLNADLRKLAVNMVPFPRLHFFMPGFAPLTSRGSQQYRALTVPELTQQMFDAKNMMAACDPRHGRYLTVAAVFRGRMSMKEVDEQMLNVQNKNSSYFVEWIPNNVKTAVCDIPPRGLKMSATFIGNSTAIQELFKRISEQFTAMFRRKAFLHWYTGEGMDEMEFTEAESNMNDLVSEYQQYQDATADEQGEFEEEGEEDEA

Row | SMILES | IC50 (tubulin) | IC50 (HCT116 cells)
1 | Cc1ccc(-n2nc(C)cc2C(=O)N2CCN(c3cccc(Cl)c3Cl)CC2)cc1 [3/132] | 20000 nM | 3100 nM
2 | CCc1ccccc1N1CCN(C(=O)c2cc(C)nn2-c2cccc(F)c2)CC1 [3/95] | 3000 nM | 164 nM
3 | Cc1cc(C(=O)N2CCN(c3cccc(Cl)c3Cl)CC2)n(-c2cccc(Cl)c2)n1 [3/125] | 12500 nM | 148 nM
4 | CCOc1ccccc1N1CCN(C(=O)c2cc(C)nn2-c2cccc(Cl)c2)CC1 [3/71] | 2500 nM | 220 nM
5 | Cc1cc(C(=O)N2CCN(c3cccc(Cl)c3Cl)CC2)n(-c2ccc(Cl)cc2)n1 [3/129] | < 25000 nM | 2560 nM
6 | Cc1cc(C(=O)N2CCN(c3ccc(F)cc3)CC2)n(-c2cccc(F)c2)n1 [3/92] | 12500 nM | 158 nM
7 | Cc1cc(C(=O)N2CCN(c3ccc(C)c(Cl)c3)CC2)n(-c2ccccc2)n1 [3/151] | 1700 nM | 22.1 nM
8 | COc1cccc(-n2nc(C)cc2C(=O)N2CCN(c3cccc4ccccc34)CC2)c1 [3/138] | < 25000 nM | 20000 nM
9 | Cc1cccc(-n2nc(C)cc2C(=O)N2CCN(c3cccc4ccccc34)CC2)c1 [3/32] | 3000 nM | 556 nM
10 | CCOc1ccccc1N1CCN(C(=O)c2cc(C)nn2-c2cccc(F)c2)CC1 [3/98] | 7000 nM | 157 nM
11 | Cc1cccc(-n2nc(C)cc2C(=O)N2CCN(c3ccc(Cl)cc3)CC2)c1 [3/52] | 13000 nM | 256 nM
12 | Cc1cc(C(=O)N2CCN(c3cccc4ccccc34)CC2)n(-c2cccc(F)c2)n1 [3/20] | 3000 nM | 1850 nM
13 | Cc1cc(C(=O)N2CCN(c3ccccc3)CC2)n(-c2cccc(F)c2)n1 [3/89] | 2200 nM | 14 nM
14 | CCOc1ccccc1N1CCN(C(=O)c2cc(C)nn2-c2ccccc2)CC1 [3/43] | 9000 nM | 229 nM
15 | COc1cc(OC)cc(N2CCN(C(=O)c3cc(CO)nn3-c3ccccc3)CC2)c1 [Example E73, [4-(3,5-Dimethoxyphenyl)piperazin-1-yl](3-hydroxymethyl-1-phenyl-1H-pyrazol-5-yl)methanone] | 990 nM | 6.9 nM
16 | Cc1cc(C(=O)N2CCN(c3cccc(Cl)c3)CC2)n(-c2ccc(F)cc2F)n1 [Example E42, [4-(3-Chlorophenyl)piperazin-1-yl][2-(2,4-difluorophenyl)-5-methyl-2H-pyrazol-3-yl]methanone] | 2090 nM | 50.2 nM
17 | Cc1cc(C(=O)N2CCN(c3ccc(F)c(Cl)c3)CC2)n(-c2ccccc2)n1 [Example E72, [4-(3-Chloro-4-fluorophenyl)piperazin-1-yl](5-methyl-2-phenyl-2H-pyrazol-3-yl)methanone] | 1550 nM | 6.6 nM
18 | COc1ccc(Cl)cc1N1CCN(C(=O)c2cc(C)nn2-c2cccc(C)c2)CC1 [3/54] | 1000 nM | 117 nM
19 | COc1cccc(-n2nc(C)cc2C(=O)N2CCN(c3ccc(Cl)c(Cl)c3)CC2)c1 [3/81] | 3500 nM | 295 nM
20 | Cc1cccc(-n2nc(C)cc2C(=O)N2CCN(c3ccccc3)CC2)c1 [3/44] | 2000 nM | 47 nM
21 | Cc1cccc(-n2nc(C)cc2C(=O)N2CCN(c3ccccc3C(F)(F)F)CC2)c1 [3/55] | 5500 nM | 1350 nM
22 | CCOC(=O)c1cccc(N2CCN(C(=O)c3cc(C)nn3-c3ccccc3)CC2)c1 [Example E28, ethyl ester of 3-[4-(5-methyl-2-phenyl-2H-pyrazole-3-carbonyl)piperazin-1-yl]benzoic acid] | 3400 nM | 60.6 nM
23 | Cc1cc(C(=O)N2CCN(c3cccc4ccccc34)CC2)n(-c2ccccc2)n1 [3/13] | 6000 nM | 466 nM
24 | Cc1cc(C(=O)N2CCN(c3cccc(C(N)=O)c3)CC2)n(-c2cccnc2)n1 [Example E97, 3-[4-(5-Methyl-2-pyrid-3-yl-2H-pyrazole-3-carbonyl)piperazin-1-yl]benzamide] | 3600 nM | 81.1 nM
25 | COc1cccc(-n2nc(C)cc2C(=O)N2CCN(c3ccc4c(c3)OCCO4)CC2)c1 [3/140] | < 25000 nM | 2970 nM

— patent publication US20050130989A1, “N-arylheteroaromatic products compositions containing them and use thereof” (Aventis Pharma S. A., priority 2003, published 2005)
